Test results published in patent US9493537B2, “Compounds with reduced ring size for use in diagnosing and treating melanoma, including metastatic melanoma and methods related to same” (STC.UNM, priority 2009, dated 2016).
Like-named read-outs stand apart in the source and are kept apart here.

Assays:
[1] = Biodistribution in B16/F1 melanoma-bearing C57 mice; assay type: in vivo; settings: female, C57, mouse, iv, total radioactivity; for tissue uptake at 4 h: 4 h post-injection; for tissue uptake at 24 h: 24 h post-injection; for tissue uptake at 0.5 h: 0.5 h post-injection
Procedure: All the animal studies were conducted in compliance with Institutional Animal Care and Use Committee approval. The mice were housed five animals per cage in sterile micro-isolator cages in a temperature- and humidity-controlled room with a 12-h light/12-h dark schedule. […] C57 mice were subcutaneously inoculated on the right flank with 1×10^6 B16/F1 cells. The weight of tumors reached approximately 0.2 g 10 days post cell inoculation. […] Groups of 5 mice were sacrificed at 0.5, 2, 4 and 24 h post-injection, and tumors and organs of interest were harvested, weighed and counted. Blood values were taken as 6.5% of the whole-body weight. […] The mice were sacrificed at 2 h post-injection. The tumor and organs of interest were harvested, weighed and counted.
All animal studies were conducted in compliance with Institutional Animal Care and Use Committee approval. The pharmacokinetics of ^111In-DOTA-GGNle-CycMSHhex and ^111In-DOTA-GENle-CycMSHhex were determined in B16/F1 melanoma-bearing C57 female mice (Harlan, Indianapolis, Ind.). The C57 mice were subcutaneously inoculated with 1×10^6 B16/F1 cells on the right flank for each mouse to generate B16/F1 melanomas. Ten days post inoculation, the tumor weights reached approximately 0.2 g. Each melanoma-bearing mouse was injected with 0.037 MBq of ^111In-DOTA-GGNle-CycMSHhex or ^111In-DOTA-GENle-CycMSHhex via the tail vein. Groups of 5 mice were sacrificed at 0.5, 2, 4 and 24 h post-injection, and tumors and organs of interest were harvested, weighed and counted. Blood values were taken as 6.5% of the whole-body weight. The specificities of the tumor uptake of ^111In-DOTA-GGNle-CycMSHhex and ^111In-DOTA-GENle-CycMSHhex were determined by co-injecting 10 μg (6.07 nmol) of unlabeled NDP-MSH which is a linear α-MSH peptide analogue with picomolar MC1 receptor binding affinity.

[2] = tested on: B16/F1 melanoma; settings: literature, cited from earlier work
[3] = lung, 0.037 MBq, read-out: Lung uptake
[4] = muscle, 0.037 MBq, read-out: Muscle uptake
[5] = pancreas, 0.037 MBq, read-out: Pancreas uptake
[6] = skin, 0.037 MBq, read-out: Skin uptake
[7] = spleen, 0.037 MBq, read-out: Spleen uptake
[8] = stomach, 0.037 MBq, read-out: Stomach uptake
[9] = tumor, 0.037 MBq, read-out: Tumor uptake

CCCC[C@H](NC(=O)CN1CCN(CC(=O)O)CCN(CC(=O)O)CCN(CC(=O)O)CC1)C(=O)N[C@H]1CC(=O)NCCCC[C@@H](C(N)=O)NC(=O)[C@H](Cc2c[nH]c3ccccc23)NC(=O)[C@H](CCCNC(=N)N)NC(=O)[C@@H](Cc2ccccc2)NC(=O)[C@H](Cc2c[nH]cn2)NC1=O [^111In-DOTA-Nle-CycMSHhex, metal not drawn]
tissue uptake at 4 h [1, 3]: 0.1 ± 0.05 %ID/g
tissue uptake at 24 h [1, 3]: 0.1 ± 0.03 %ID/g
tissue uptake at 2 h ([1]; lung, 2 h post-injection, L-lysine co-injection, read-out: Lung uptake): 0.75 ± 0.21 %ID/g
tissue uptake at 2 h ([1]; lung, 2 h post-injection, NDP blockade, read-out: Lung uptake): 0.3 ± 0.06 %ID/g
tissue uptake at 0.5 h [1, 4]: 0.6 ± 0.22 %ID/g
tissue uptake at 2 h ([1]; muscle, 0.037 MBq, 2 h post-injection, read-out: Muscle uptake): 0.15 ± 0.08 %ID/g
tissue uptake at 4 h [1, 4]: 0.1 ± 0.08 %ID/g
tissue uptake at 24 h [1, 4]: 0.03 ± 0.01 %ID/g
tissue uptake at 2 h ([1]; muscle, 2 h post-injection, L-lysine co-injection, read-out: Muscle uptake): 0.1 ± 0.08 %ID/g
tissue uptake at 2 h ([1]; muscle, 2 h post-injection, NDP blockade, read-out: Muscle uptake): 0.02 ± 0.01 %ID/g
tissue uptake at 0.5 h [1, 5]: 1.18 ± 0.38 %ID/g
tissue uptake at 2 h ([1]; pancreas, 0.037 MBq, 2 h post-injection, read-out: Pancreas uptake): 0.14 ± 0.02 %ID/g
tissue uptake at 4 h [1, 5]: 0.16 ± 0.02 %ID/g
tissue uptake at 24 h [1, 5]: 0.23 ± 0.08 %ID/g
tissue uptake at 2 h ([1]; pancreas, 2 h post-injection, L-lysine co-injection, read-out: Pancreas uptake): 0.21 ± 0.05 %ID/g
tissue uptake at 2 h ([1]; pancreas, 2 h post-injection, NDP blockade, read-out: Pancreas uptake): 0.12 ± 0.02 %ID/g
tissue uptake at 0.5 h [1, 6]: 4.11 ± 0.72 %ID/g
tissue uptake at 2 h ([1]; skin, 0.037 MBq, 2 h post-injection, read-out: Skin uptake): 0.66 ± 0.23 %ID/g
tissue uptake at 4 h [1, 6]: 0.53 ± 0.05 %ID/g
tissue uptake at 24 h [1, 6]: 0.64 ± 0.16 %ID/g
tissue uptake at 2 h ([1]; skin, 2 h post-injection, L-lysine co-injection, read-out: Skin uptake): 1.02 ± 0.09 %ID/g
tissue uptake at 2 h ([1]; skin, 2 h post-injection, NDP blockade, read-out: Skin uptake): 0.29 ± 0.02 %ID/g
tissue uptake at 0.5 h [1, 7]: 1.09 ± 0.33 %ID/g
tissue uptake at 2 h ([1]; spleen, 0.037 MBq, 2 h post-injection, read-out: Spleen uptake): 0.41 ± 0.13 %ID/g
tissue uptake at 4 h [1, 7]: 0.47 ± 0.13 %ID/g
tissue uptake at 24 h [1, 7]: 0.32 ± 0.08 %ID/g
tissue uptake at 2 h ([1]; spleen, 2 h post-injection, L-lysine co-injection, read-out: Spleen uptake): 0.43 ± 0.07 %ID/g
tissue uptake at 2 h ([1]; spleen, 2 h post-injection, NDP blockade, read-out: Spleen uptake): 0.44 ± 0.02 %ID/g
tissue uptake at 0.5 h [1, 8]: 3.2 ± 0.98 %ID/g
tissue uptake at 2 h ([1]; stomach, 0.037 MBq, 2 h post-injection, read-out: Stomach uptake): 1.25 ± 0.24 %ID/g
tissue uptake at 4 h [1, 8]: 1.49 ± 0.12 %ID/g
tissue uptake at 24 h [1, 8]: 1.34 ± 0.42 %ID/g
tissue uptake at 2 h ([1]; stomach, 2 h post-injection, L-lysine co-injection, read-out: Stomach uptake): 1.64 ± 0.78 %ID/g
tissue uptake at 2 h ([1]; stomach, 2 h post-injection, NDP blockade, read-out: Stomach uptake): 0.36 ± 0.14 %ID/g
tissue uptake at 0.5 h [1, 9]: 24.9 ± 4.58 %ID/g
tissue uptake at 2 h ([1]; tumor, 0.037 MBq, 2 h post-injection, read-out: Tumor uptake): 19.4 ± 1.65 %ID/g
tissue uptake at 4 h [1, 9]: 17 ± 2.54 %ID/g
tissue uptake at 24 h [1, 9]: 10.5 ± 1.11 %ID/g
tissue uptake at 2 h ([1]; tumor, 2 h post-injection, L-lysine co-injection, read-out: Tumor uptake): 14.5 ± 3.25 %ID/g
tissue uptake at 2 h ([1]; tumor, 2 h post-injection, NDP blockade, read-out: Tumor uptake): 0.81 ± 0.03 %ID/g
dose excreted at 2 h ([1]; urine, 0.037 MBq, 2 h post-injection, read-out: Urine, percent injected dose): 82.2 ± 5.83%
tumor (melanoma) uptake ([2]; 0.5 h post-injection): 24.94±4.58 % ID/g
tumor (melanoma) uptake ([2]; 2 h post-injection): 19.39±1.65 % ID/g
tumor (melanoma) uptake ([2]; 4 h post-injection): 17.01±2.54 % ID/g
